# From patent US20100003276A1 (priority 2004, published 2010)
# Target: Bacillus anthracis lethal factor (Bacillus anthracis, UniProt P15917)
# Assay type: biochemical
# Settings: read-out: lethal factor enzyme binding assay IC50
# Bacillus anthracis lethal factor, sequence (P15917 34-809 limits assumed): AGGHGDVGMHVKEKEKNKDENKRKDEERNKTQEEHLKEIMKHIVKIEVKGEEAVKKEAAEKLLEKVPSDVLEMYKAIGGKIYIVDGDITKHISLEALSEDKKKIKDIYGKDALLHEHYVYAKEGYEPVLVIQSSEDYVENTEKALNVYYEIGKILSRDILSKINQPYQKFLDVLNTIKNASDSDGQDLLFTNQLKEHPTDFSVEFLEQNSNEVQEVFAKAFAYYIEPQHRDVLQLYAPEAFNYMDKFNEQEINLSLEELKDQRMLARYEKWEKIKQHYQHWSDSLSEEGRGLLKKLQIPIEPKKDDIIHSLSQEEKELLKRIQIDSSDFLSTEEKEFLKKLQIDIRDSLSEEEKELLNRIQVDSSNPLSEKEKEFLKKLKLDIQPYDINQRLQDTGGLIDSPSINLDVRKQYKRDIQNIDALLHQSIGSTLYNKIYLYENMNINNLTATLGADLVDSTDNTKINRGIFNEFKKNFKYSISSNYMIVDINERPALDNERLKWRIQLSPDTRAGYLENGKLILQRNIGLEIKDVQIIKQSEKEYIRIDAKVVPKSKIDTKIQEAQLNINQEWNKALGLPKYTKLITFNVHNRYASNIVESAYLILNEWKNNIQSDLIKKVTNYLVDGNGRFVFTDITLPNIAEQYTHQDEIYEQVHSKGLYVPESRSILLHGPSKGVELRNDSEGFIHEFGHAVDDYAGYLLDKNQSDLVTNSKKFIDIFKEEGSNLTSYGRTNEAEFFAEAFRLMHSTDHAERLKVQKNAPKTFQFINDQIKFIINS
smiles,measurement,value
Cc1cc(S(=O)(=O)N[C@@H](C(=O)NO)C(C)C)ccc1F [N-hydroxy-2(R)-[(4-fluoro-3-methylphenylsulfonyl)]amino-3-methylbutyramide],IC50,130 nM
